Experimental data taken from ChEMBL document CHEMBL1932988, “Synthesis, antimicrobial, anticancer evaluation and QSAR studies of 6-methyl-4-[1-(2-substituted-phenylamino-acetyl)-1H-indol-3-yl]-2-oxo/thioxo-1,2,3,4-tetrahydropyrimidine-5-carboxylic acid ethyl esters” (Eur J Med Chem, 2012).
In brackets after ≈: the same amount, converted by molar mass.

Tests used:
Escherichia coli [1] = assay: Antibacterial activity against Escherichia coli MTCC 1652 after 24 hrs by tube dilution method; format: functional
Escherichia coli [2] = assay: Ratio of MIC to MBC for Escherichia coli MTCC 1652; format: functional
Bacillus subtilis [3] = assay: Antibacterial activity against Bacillus subtilis MTCC 2063 after 24 hrs by tube dilution method; format: functional
HCT-116 = assay: cells; settings: Homo sapiens, HCT-116, 72 h
[4] = Partition coefficient, log P of the compound; format: physicochemical; settings: octanol/water
Aspergillus niger [5] = assay: Antifungal activity against Aspergillus niger MTCC 8189 after 7 days by tube dilution method; format: functional
Bacillus subtilis [6] = assay: Antibacterial activity against Bacillus subtilis MTCC 2063 after 24 hrs by tube dilution method hrs followed by subculturing; format: functional
Aspergillus niger [7] = assay: Antifungal activity against Aspergillus niger MTCC 8189 after 7 days by tube dilution method hrs followed by subculturing; format: functional
Aspergillus niger [8] = assay: Ratio of MIC to MFC for Aspergillus niger MTCC 8189; format: functional
Bacillus subtilis [9] = assay: Ratio of MIC to MBC for Bacillus subtilis MTCC 2063; format: functional
MCF7 = assay: cells; settings: Homo sapiens, MCF7, 72 h
Description: Cytotoxicity against human MCF7 cells after 72 hrs by MTT assay

Candida albicans [10] = assay: Antifungal activity against Candida albicans MTCC 227 after 48 hrs by tube dilution method hrs followed by subculturing; format: functional
Staphylococcus aureus [11] = assay: Antibacterial activity against Staphylococcus aureus MTCC 2901 after 24 hrs followed by subculturing; format: functional
Escherichia coli [12] = assay: Antibacterial activity against Escherichia coli MTCC 1652 after 24 hrs by tube dilution method hrs followed by subculturing; format: functional
Candida albicans [13] = assay: Antifungal activity against Candida albicans MTCC 227 after 48 hrs by tube dilution method; format: functional
Staphylococcus aureus [14] = assay: Ratio of MIC to MBC for Staphylococcus aureus MTCC 2901; format: functional
Staphylococcus aureus [15] = assay: Antibacterial activity against Staphylococcus aureus MTCC 2901 after 24 hrs by tube dilution method; format: functional
Candida albicans [16] = assay: Ratio of MIC to MFC for Candida albicans MTCC 227; format: functional

SMILES	-logMIC (Escherichia coli [1])	Ratio (Escherichia coli [2])	-logMIC (Bacillus subtilis [3])	IC50 (HCT-116) [µg/mL]	logP [4]	-logMIC (Aspergillus niger [5])	MBC (Bacillus subtilis [6]) [uM/ml]	MFC (Aspergillus niger [7]) [uM/ml]	Ratio (Aspergillus niger [8])	Ratio (Bacillus subtilis [9])	IC50 (MCF7) [µg/mL]	MFC (Candida albicans [10]) [uM/ml]	MBC (Staphylococcus aureus [11]) [uM/ml]	MBC (Escherichia coli [12]) [uM/ml]	-logMIC (Candida albicans [13])	Ratio (Staphylococcus aureus [14])	-logMIC (Staphylococcus aureus [15])	Ratio (Candida albicans [16])
CCOC(=O)C1=C(C)NC(=S)NC1c1cn(C(=O)CNc2ccccc2)c2ccccc12 (configuration not stated)	1.55	3	1.25	450 (≈ 1000 µM)	2.92	1.55	>0.11	>0.11	3	3	52 (≈ 116 µM)	>0.11	>0.11	>0.11	1.55	3	1.55	3
CCOC(=O)C1=C(C)NC(=S)NC1c1cn(C(=O)CNc2ccccc2Cl)c2ccccc12 (configuration not stated)	1.59	3	1.29	–	3.44	1.59	>0.1	>0.1	3	3	–	>0.1	>0.1	>0.1	1.59	3	1.29	3
CCOC(=O)C1=C(C)NC(=S)NC1c1cn(C(=O)CNc2ccc([N+](=O)[O-])c(Cl)c2)c2ccccc12 (configuration not stated)	1.63	3	1.32	29 (≈ 54.9 µM)	3.4	1.63	>0.09	>0.09	3	3	50 (≈ 94.7 µM)	>0.09	>0.09	>0.09	1.63	3	1.63	3
CCOC(=O)C1=C(C)NC(=O)NC1c1cn(C(=O)CNc2ccc([N+](=O)[O-])cc2Cl)c2ccccc12 (configuration not stated)	1.61	3	1.61	5 (≈ 9.77 µM)	1.99	1.61	>0.1	>0.1	3	3	50 (≈ 97.7 µM)	>0.1	>0.1	>0.1	1.61	3	1.61	3
CCOC(=O)C1=C(C)NC(=O)NC1c1cn(C(=O)CNc2ccc([N+](=O)[O-])cc2C)c2ccccc12 (configuration not stated)	1.59	3	1.29	600 (≈ 1220 µM)	1.94	1.59	>0.1	>0.1	3	3	50 (≈ 102 µM)	>0.1	>0.1	>0.1	1.59	3	1.59	3
CCOC(=O)C1=C(C)NC(=S)NC1c1cn(C(=O)CNc2ccc([N+](=O)[O-])cc2C)c2ccccc12 (configuration not stated)	1.61	3	1.61	> 1000	3.34	1.61	>0.1	>0.1	3	3	48 (≈ 94.6 µM)	>0.1	>0.1	>0.1	1.61	3	1.61	3
CCOC(=O)C1=C(C)NC(=O)NC1c1cn(C(=O)CNc2ccccc2[N+](=O)[O-])c2ccccc12 (configuration not stated)	1.58	3	1.58	250 (≈ 524 µM)	1.48	1.58	>0.1	>0.1	3	3	40 (≈ 83.8 µM)	>0.1	>0.1	>0.1	1.58	3	1.58	3
CCOC(=O)C1=C(C)NC(=S)NC1c1cn(C(=O)CNc2ccccc2[N+](=O)[O-])c2ccccc12 (configuration not stated)	1.6	3	1.6	> 1000	2.88	1.6	>0.1	>0.1	3	3	550 (≈ 1110 µM)	>0.1	>0.1	>0.1	1.6	3	1.3	3
